The values that follow come from patent US10590118B2, “Bicyclic heterocyclic derivatives as bromodomain inhibitors” (Orion Corporation, priority 2014, dated 2020).

Where only a bound is given, the exact number is not on record here.

The target of the experiment is T1, Bet bromodomain protein (BRD4) (Homo sapiens, UniProt O60885).
T1 construct: made in house
Briefly: Bet bromodomain TR-FRET assay. The conditions noted are these: 300 nM acetyl histone peptide substrate, results given as Group A/B/C. It is filed as binding. The gist of the method:
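In-house BRD4 protein with 300 nM acetyl histone peptide in 50 mM HEPES pH 7.5, 50 mM NaCl, 500 μM CHAPS; 30 min RT, then serially diluted compound for 30 min RT. Eu-streptavidin (2 nM) and XL-665 antibody (10 nM) added for 30 min; 665/615 nm ratio read, IC50 from sigmoid dose-response fit.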
Background: TR-FRET usually uses a lanthanide donor and a delayed reading to cut background.
In the case of `COc1cc2c(ccc(=O)n2Cc2ccccn2)cc1-c1conc1C` [Compound 64, 7-methoxy-6-(3-methylisoxazol-4-yl)-1-(pyridin-2-ylmethyl)quinolin-2(1H)-one], the IC50 (usually the concentration at which inhibition is half-maximal) was no more than 1000 nM.

`COc1cc2c(cc1-c1c(C)noc1C)ncc(=O)n2Cc1ccccn1` [Compound 93, 6-(3,5-dimethylisoxazol-4-yl)-7-methoxy-1-(pyridin-2-ylmethyl)quinoxalin-2(1H)-one] returned an IC50 of no more than 1000 nM.

With `COc1cc2c(cc1-c1c(C)noc1C)OCCN2Cc1ccccc1N` [Compound 16, 2-((7-(3,5-dimethylisoxazol-4-yl)-6-methoxy-2H-benzo[b][1,4]oxazin-4(3H)-yl)methyl)aniline], the 50% inhibitory concentration (IC50) was no more than 1000 nM.

Compound `Cc1noc(C)c1-c1cc2ccc(=O)n(Cc3ccccn3)c2cc1OCCC1CCNCC1` [Compound 88, 6-(3,5-dimethylisoxazol-4-yl)-7-(2-(piperidin-4-yl)ethoxy)-1-(pyridin-2-ylmethyl)quinolin-2(1H)-one] yielded a half-inhibitory concentration (IC50) of 1000 to 3000 nM.

In turn, `COc1cc2c(cc1-c1c(C)noc1C)cc(CO)c(=O)n2Cc1ccccn1` [Compound 96, 6-(3,5-dimethylisoxazol-4-yl)-3-(hydroxymethyl)-7-methoxy-1-(pyridin-2-ylmethyl)quinolin-2(1H)-one] gave an IC50 of no more than 1000 nM.

`COc1cc2c(ccc(=O)n2CCc2ccccn2)cc1-c1c(C)noc1C` [Compound 42, 6-(3,5-dimethylisoxazol-4-yl)-7-methoxy-1-(2-(pyridin-2-yl)ethyl)quinolin-2(1H)-one] came in with an IC50 of 1000 to 3000 nM.

For the compound `COc1cc2c(cc1-c1c(C)noc1C)OCC(=O)N2C(C)c1ccc(Cl)cc1` (single isomer, unassigned) [Compound 34, 4-(1-(4-chlorophenyl)ethyl)-7-(3,5-dimethylisoxazol-4-yl)-6-methoxy-2H-benzo[b][1,4]oxazin-3(4H)-one], the IC50 is no more than 1000 nM.

Compound `COc1cc2c(cc1-c1c(C)noc1C)C(C)(C)CC(=O)N2Cc1ccccn1` [Compound 48, 6-(3,5-dimethylisoxazol-4-yl)-7-methoxy-4,4-dimethyl-1-(pyridin-2-ylmethyl)-3,4-dihydroquinolin-2(1H)-one] registered a half-maximal inhibitory concentration (IC50) greater than 3000 nM.

As for `COc1cc2c(ccc(=O)n2Cc2ccccn2)cc1-c1c(C2CC2)noc1C` [Compound 62, 6-(3-cyclopropyl-5-methylisoxazol-4-yl)-7-methoxy-1-(pyridin-2-ylmethyl)quinolin-2(1H)-one], the IC50 was no more than 1000 nM.

Turning to `COc1cc2c(ccc(=O)n2S(=O)(=O)c2ccc(Cl)cc2)cc1-c1c(C)noc1C` [Compound 14, 1-((4-chlorophenyl)sulfonyl)-6-(3,5-dimethylisoxazol-4-yl)-7-methoxyquinolin-2(1H)-one], the IC50 was greater than 3000 nM.

For the compound `COc1cc2c(cc1-c1c(C)noc1C)OCC(=O)N2Cc1ccc(O)nc1` [Compound 70], the half-inhibitory concentration (IC50) was greater than 3000 nM.

`COc1cc2c(cc1-c1c(C)noc1C)OCCN2C(C)c1cccnc1` (centres unmarked) [Compound 7, 7-(3,5-dimethylisoxazol-4-yl)-6-methoxy-4-(1-(pyridin-3-yl)ethyl)-3,4-dihydro-2H-benzo[b][1,4]oxazine] displayed an IC50 of no more than 1000 nM.

Compound `COc1cc2c(cc1-c1c(C)noc1C)OCC(=O)N2C(C)c1cccnc1` (single isomer, unassigned) [Compound 24, 7-(3,5-dimethytisoxazol-4-yl)-6-methoxy-4-(1-(pyridin-3-yl)ethyl)-2H-benzo[b][1,4]oxazin-3(4H)-one] had an IC50 of no more than 1000 nM.

As to `COc1cc2c(ccc(=O)n2Cc2ccncn2)cc1-c1c(C)noc1C` [Compound 44, 6-(3,5-dimethylisoxazol-4-yl)-7-methoxy-1-(pyrimidin-4-ylmethyl)quinolin-2(1H)-one], the IC50 is no more than 1000 nM.

The compound `COc1cc2c(cc1-c1c(C)noc1C)cc(C(O)C(F)(F)F)c(=O)n2Cc1ccccn1` (racemic) [Compound 101, 6-(3,5-dimethylisoxazol-4-yl)-methoxy-1-(pyridin-2-ylmethyl)-3-(2,2,2-trifluoro-1-hydroxyethyl)quinolin-2(1H)-one] gave a concentration for half-maximal inhibition (IC50) of no more than 1000 nM.

Compound `COc1cc2c(cc1-c1c(C)noc1C)OCC(=O)N2Cc1ccc(C)nc1` [Compound 32, 7-(3,5-dimethylisoxazol-4-yl)-6-methoxy-4-((6-methylpyridin-3-yl)methyl)-2H-benzo[b][1,4]oxazin-3(4H)-one] showed a 50% inhibitory concentration (IC50) of no more than 1000 nM.

`COc1cc2c(cc1-c1c(C)noc1C)cc(C)c(=O)n2Cc1ccc(Cl)cn1` [Compound 58, 1-((5-chloropyridin-2-yl)methyl)-6-(3,5-dimethylisoxazol-4-yl)-7-methoxy-3-methylquinolin-2(1H)-one]: the IC50 is no more than 1000 nM.

`Cc1noc(C)c1-c1cc2ccc(=O)n(Cc3ccc(Cl)cn3)c2cc1O` [Compound 73, 1-((5-chloropyridin-2-yl)methyl)-6-(3,5-dimethylisoxazol-4-yl)-7-hydroxyquinolin-2(1H)-one] gave an IC50 of no more than 1000 nM.

In turn, `Cc1noc(C)c1-c1cc2ccc(=O)n(Cc3ccccn3)c2cc1OCCN1CCNCC1` [Compound 82, 6-(3,5-dimethylisoxazol-4-yl)-7-(2-(piperazin-1-yl)ethoxy)-1-(pyridin-2-ylmethyl)quinolin-2(1H)-one] gave a concentration for half-maximal inhibition (IC50) of 1000 to 3000 nM.

For `CCCCOc1cc2c(ccc(=O)n2Cc2ccccn2)cc1-c1c(C)noc1C` [Compound 78, 7-butoxy-6-(3,5-dimethylisoxazol-4-yl)-1-(pyridin-2-ylmethyl)quinolin-2(1H)-one], the concentration for half-maximal inhibition (IC50) is no more than 1000 nM.

As for `COc1cc2c(cc1-c1c(C)noc1C)cc(C(O)C(F)(F)F)c(=O)n2Cc1ccccn1` (single isomer, unassigned) [Compound 102, 6-(3,5-dimethylisoxazol-4-yl)-7-methoxy-1-(pyridin-2-ylmethyl)-3-(2,2,2-trifluoro-1-hydroxyethyl)quinolin-2(1H)-one], the concentration for half-maximal inhibition (IC50) was no more than 1000 nM.

`COc1cc2c(cc1-c1c(C)noc1C)c(C(F)(F)F)cc(=O)n2Cc1ccccn1` [Compound 54, 6-(3,5-dimethytisoxazol-4-yl)-7-methoxy-1-(pyridin-2-ylmethyl)-4-(trifluoromethyl)quinolin-2(1H)-one] yielded an IC50 greater than 3000 nM.

Take `COc1cc2c(cc1Nc1c(C)noc1C)OCC(=O)N2Cc1ccc(Cl)cc1` [Compound 95, 4-(4-chlorobenzyl)-7-((3,5-dimethylisoxazol-4-yl)amino)-6-methoxy-2H-benzo[b][1,4]oxazin-3(4H)-one]: the IC50 is greater than 3000 nM.
